Assay: xn = mol fraction of the nth substance listed
Conditions: Liquid, Vibrating tube method

CCCCCCCCCCCCC [tridecane] + O=C=O
Conditions	mass density [kg/m3]
333.3 K, 17000 kPa, x2 = 0.2526	746.5
333.3 K, 18000 kPa, x2 = 0.0955	743.9
333.3 K, 18000 kPa, x2 = 0.2526	747.3
333.3 K, 19000 kPa, x2 = 0.0955	744.6
333.3 K, 19000 kPa, x2 = 0.2526	748.1
333.3 K, 20000 kPa, x2 = 0.0955	745.3
333.3 K, 20000 kPa, x2 = 0.2526	748.9
333.3 K, 21000 kPa, x2 = 0.0955	746.1
333.3 K, 21000 kPa, x2 = 0.2526	749.7
333.3 K, 22000 kPa, x2 = 0.0955	746.7
333.3 K, 22000 kPa, x2 = 0.2526	750.5
333.3 K, 23000 kPa, x2 = 0.0955	747.4
333.3 K, 23000 kPa, x2 = 0.2526	751.2
333.3 K, 24000 kPa, x2 = 0.0955	748.1
333.3 K, 24000 kPa, x2 = 0.2526	751.9
333.3 K, 25000 kPa, x2 = 0.0955	748.7
333.3 K, 25000 kPa, x2 = 0.2526	752.6
343.02 K, 8000 kPa, x2 = 0.5259	739.5
343.02 K, 9000 kPa, x2 = 0.5259	740.9
343.02 K, 10000 kPa, x2 = 0.5259	742.3
343.02 K, 11000 kPa, x2 = 0.5259	743.7
343.02 K, 12000 kPa, x2 = 0.5259	745.1
343.02 K, 13000 kPa, x2 = 0.5259	746.4
343.02 K, 14000 kPa, x2 = 0.5259	747.6
343.02 K, 15000 kPa, x2 = 0.5259	748.9
343.02 K, 16000 kPa, x2 = 0.5259	750.1
343.02 K, 17000 kPa, x2 = 0.5259	751.3
343.02 K, 18000 kPa, x2 = 0.5259	752.5
343.02 K, 19000 kPa, x2 = 0.5259	753.7
343.02 K, 20000 kPa, x2 = 0.5259	754.8
343.02 K, 21000 kPa, x2 = 0.5259	755.9
343.02 K, 22000 kPa, x2 = 0.5259	757
343.02 K, 23000 kPa, x2 = 0.5259	758.1
343.02 K, 24000 kPa, x2 = 0.5259	759.2
343.02 K, 25000 kPa, x2 = 0.5259	760.2
343.13 K, 15000 kPa, x2 = 0.8978	710.8
343.13 K, 16000 kPa, x2 = 0.8978	723.5
343.13 K, 17000 kPa, x2 = 0.8978	733.2
343.13 K, 18000 kPa, x2 = 0.8978	741.1
343.13 K, 19000 kPa, x2 = 0.8978	748
343.13 K, 20000 kPa, x2 = 0.8978	755
343.13 K, 21000 kPa, x2 = 0.8978	761.4
343.13 K, 22000 kPa, x2 = 0.8978	767.3
343.13 K, 23000 kPa, x2 = 0.8978	772.8
343.13 K, 24000 kPa, x2 = 0.8978	778
343.13 K, 25000 kPa, x2 = 0.8978	782.8
343.14 K, 9000 kPa, x2 = 0.0955	729.8
343.14 K, 9000 kPa, x2 = 0.2526	732.2
343.14 K, 10000 kPa, x2 = 0.0955	730.6
343.14 K, 10000 kPa, x2 = 0.2526	733.2
343.14 K, 11000 kPa, x2 = 0.0955	731.5
343.14 K, 11000 kPa, x2 = 0.2526	734.1
343.14 K, 12000 kPa, x2 = 0.0955	732.4
343.14 K, 12000 kPa, x2 = 0.2526	735
343.14 K, 13000 kPa, x2 = 0.0955	733.2
343.14 K, 13000 kPa, x2 = 0.2526	736
343.14 K, 14000 kPa, x2 = 0.0955	734.1
343.14 K, 14000 kPa, x2 = 0.2526	736.9
343.14 K, 15000 kPa, x2 = 0.0955	734.9
343.14 K, 15000 kPa, x2 = 0.2526	737.8
343.14 K, 16000 kPa, x2 = 0.0955	735.7
343.14 K, 16000 kPa, x2 = 0.2526	738.6
343.14 K, 17000 kPa, x2 = 0.0955	736.5
343.14 K, 17000 kPa, x2 = 0.2526	739.5
343.14 K, 18000 kPa, x2 = 0.0955	737.3
343.14 K, 18000 kPa, x2 = 0.2526	740.4
343.14 K, 19000 kPa, x2 = 0.0955	738.1
343.14 K, 19000 kPa, x2 = 0.2526	741.2
343.14 K, 20000 kPa, x2 = 0.0955	738.9
343.14 K, 20000 kPa, x2 = 0.2526	742
343.14 K, 21000 kPa, x2 = 0.0955	739.6
343.14 K, 21000 kPa, x2 = 0.2526	742.8
343.14 K, 22000 kPa, x2 = 0.0955	740.4
343.14 K, 22000 kPa, x2 = 0.2526	743.6
343.14 K, 23000 kPa, x2 = 0.0955	741.1
343.14 K, 23000 kPa, x2 = 0.2526	744.4
343.14 K, 24000 kPa, x2 = 0.0955	741.8
343.14 K, 24000 kPa, x2 = 0.2526	745.1
343.14 K, 25000 kPa, x2 = 0.0955	742.5
343.14 K, 25000 kPa, x2 = 0.2526	745.9
343.32 K, 14000 kPa, x2 = 0.7549	752.1
343.32 K, 15000 kPa, x2 = 0.7549	755.2
343.32 K, 16000 kPa, x2 = 0.7549	758
343.32 K, 17000 kPa, x2 = 0.7549	760.9
343.32 K, 18000 kPa, x2 = 0.7549	763.8
343.32 K, 19000 kPa, x2 = 0.7549	766.7
343.32 K, 20000 kPa, x2 = 0.7549	769.6
343.32 K, 21000 kPa, x2 = 0.7549	772.4
343.32 K, 22000 kPa, x2 = 0.7549	775.2
343.32 K, 23000 kPa, x2 = 0.7549	777.9
343.32 K, 24000 kPa, x2 = 0.7549	780.7
343.32 K, 25000 kPa, x2 = 0.7549	783.5
353.12 K, 9000 kPa, x2 = 0.0955	722.6
353.12 K, 9000 kPa, x2 = 0.2526	724.8
353.12 K, 10000 kPa, x2 = 0.0955	723.6
353.12 K, 10000 kPa, x2 = 0.2526	725.8
353.12 K, 11000 kPa, x2 = 0.0955	724.5
353.12 K, 11000 kPa, x2 = 0.2526	726.8
353.12 K, 12000 kPa, x2 = 0.0955	725.4
353.12 K, 12000 kPa, x2 = 0.2526	727.8
353.12 K, 13000 kPa, x2 = 0.0955	726.3
353.12 K, 13000 kPa, x2 = 0.2526	728.8
353.12 K, 14000 kPa, x2 = 0.0955	727.2
353.12 K, 14000 kPa, x2 = 0.2526	729.7
353.12 K, 15000 kPa, x2 = 0.0955	728.1
353.12 K, 15000 kPa, x2 = 0.2526	730.7
353.12 K, 16000 kPa, x2 = 0.0955	729
353.12 K, 16000 kPa, x2 = 0.2526	731.6
353.12 K, 17000 kPa, x2 = 0.0955	729.9
353.12 K, 17000 kPa, x2 = 0.2526	732.5
353.12 K, 18000 kPa, x2 = 0.0955	730.7
353.12 K, 18000 kPa, x2 = 0.2526	733.4
353.12 K, 19000 kPa, x2 = 0.0955	731.5
353.12 K, 19000 kPa, x2 = 0.2526	734.3

— the NIST ThermoML archive (doi:10.1021/je400056z)
